Measurements reported in US20130116195A1, “Binding ligand linked drug delivery conjugates of tubulysins” (priority 2009, published 2013).

Molecular target: T1, folate receptors (FRs) on KB cells (Homo sapiens, UniProt P15328)
T1 construct: FR-positive KB cells were heavily seeded into 24-well cell culture plates; endogenous in cells; host or cells: KB cells
Test: Relative Affinity Assay (displacement of 3H-folic acid)
Type: binding
Details: 10% serum/FDRPMI; folic acid set to 1
Procedure: METHOD: Relative Affinity Assay. The affinity for folate receptors (FRs) relative to folate was determined according to a previously described method (Westerhof, G. R., J. H. Schornagel, et al. (1995) Mol. Pharm. 48: 459-471) with slight modification. Briefly, FR-positive KB cells were heavily seeded into 24-well cell culture plates and allowed to adhere to the plastic for 18 h. Spent incubation media was replaced in designated wells with folate-free RPMI (FFRPMI) supplemented with 100 nM ^3H-folic acid in the absence and presence of increasing concentrations of test article or folic acid. Cells were incubated for 60 min at 37° C. and then rinsed 3 times with PBS, pH 7.4. Five hundred microliters of 1% SDS in PBS, pH 7.4, were added per well. Cell lysates were then collected and added to individual vials containing 5 mL of scintillation cocktail, and then counted for radioactivity. Negative control tubes contained only the ^3H-folic acid in FFRPMI (no competitor). Positive control tubes contained a final concentration of 1 mM folic acid, and CPMs measured in these samples (representing non-specific binding of label) were subtracted from all samples.

T1 sequence (P15328 25-234): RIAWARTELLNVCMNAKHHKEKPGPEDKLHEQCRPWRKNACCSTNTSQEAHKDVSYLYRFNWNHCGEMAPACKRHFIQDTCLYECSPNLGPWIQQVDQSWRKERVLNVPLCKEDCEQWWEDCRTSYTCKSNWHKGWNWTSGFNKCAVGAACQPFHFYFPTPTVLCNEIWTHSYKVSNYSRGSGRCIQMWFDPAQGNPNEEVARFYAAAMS

Nc1nc2ncc(CNc3ccc(C(=O)N[C@@H](CCC(=O)O)C(=O)O)cc3)nc2c(=O)[nH]1 [folic acid]
relative affinity: 1
